The values that follow come from publication PMC10222454, “Characterization of the Molecular Diversity and Degranulation Activity of Mastoparan Family Peptides from Wasp Venoms” (Toxins, 2023).

For one assay, the system named is RBL-2H3 cells. Format: cell-based, rat. The note with it: for Degranulation at 80 μg/mL, RBL-2H3 / degranulation of RBL-2H3 / mast cells, in words: RBL-2H3 cells; for Degranulation at 80 μg/mL, RBL-2H3: 80 μg/mL peptide, 15 min at 37 °C, % of total β-hexosaminidase (0.1% Triton X-100 lysis); for degranulation activity of mutant compared with Protopolybia-MPIII, in words: mutants of Protopolybia-MPIII, Table 3. The procedure: (§1) RBL-2H3 cells (rat mucosal-type mast cell line) and P815 cells (mouse mast cell tumor cell line) were obtained from the BeNa Culture Collection (Xinyang, China). RBL-2H3 cells were cultured in DMEM (Gibco, Wuhan, China) supplemented with 15% FBS (Gibco), and P815 cells were maintained in RPMI 1640 basic medium supplemented with 10% FBS and antibiotics (100 mg/L streptomycin and 1 × 10^5 U/L penicillin) in a humidified atmosphere (5% CO2, 37 °C).
(§2) Degranulation was analyzed by measuring the release of the granule marker N-acetyl-D-glucosaminidase (β-hexosaminidase), which colocalizes with histamine, as described in [24]. For this, 2 × 10^5 P815 cells/mL or 1.5 × 10^5 RBL-2H3 cells/mL were seeded in 96-well cell culture plates. Twelve hours later, the cells were incubated with various concentrations of mastoparans dissolved in 100 μL HEPES buffer (137 mM NaCl, 2.7 mM KCl, 1 mM MgCl2, 1.8 mM CaCl2, 20 mM HEPES, 1 mg/mL BSA, and 1 mg/mL glucose, pH 7.4) for 15 min at 37 °C and 5% CO2. Then, the reactions were quenched by the addition of 0.15 mL of ice-cold HEPES buffer. After centrifugation, the supernatants were sampled for the β-hexosaminidase assay. Briefly, 50 μL samples of the cell culture supernatants and 50 μL of the substrate, 5 mM p-nitrophenyl-N-acetyl-b-D-glucosaminide (Sigma) in 0.2 M citrate, pH 4.5, were incubated in 96-well plates at 37 °C and 5% CO2 for 16–18 h to yield the chromophore p-nitrophenol, and the reactions were stopped by the addition of 100 μL of 0.2 M glycine solution, pH 10.7. The absorbance of the colored product was assessed at 405 nm using a microtiter plate reader. The values for β-hexosaminidase released in the medium are expressed as the percentage of total β-hexosaminidase, which was measured in the cells after lysis in 0.1% Triton X-100. The experiment was repeated three times, and the results represent the mean and standard deviation (SD) of quadruplicate tests. The percent degranulation was calculated according to the following equation:Degranulation Rate (%) = 100% × (Amastoparans − AHEPES)/(ATriton X-100 − AHEPES).
Statistical analysis was performed with GraphPad Prism software. The curve of mast cell degranulation induced by wasp mastoparans was generated in SigmaPlot 12.5 software, and the EC50 was calculated according to the following equation (Four-Parameter Logistic Curve): y = min + (max − min)/(1 + (x/EC50) […] Hillslope).

The test system of another assay is P815 cells. Put plainly: Mast cell degranulation activity (β-hexosaminidase release) in P815 cells. Format: cell-based, mouse. The note with it: P815 cells, 80 μg/mL peptide, 15 min at 37 °C, % of total β-hexosaminidase (0.1% Triton X-100 lysis). The procedure:
as §1, §2

Where two headings read alike, the source gives them in different places. Ends that are not written are not given here.

With INWKKIAEIGKQVLSAL-NH2 [Dominulin B], the “Degranulation at 80 μg/mL, RBL-2H3” value with RBL-2H3 cells is given as 24%. The “EC50 (μg/mL), RBL-2H3” value with RBL-2H3 cells (pH 7.4) was 148.45 ± 51.31 µg/mL. Besides, in the assay on P815 cells, the “Degranulation at 80 μg/mL, P815” value is listed as under 20%.

The EC50 is the concentration at which the effect is half-maximal. A higher EC50 goes with a less potent agent. On to INWKAILQRIKKML-NH2 [Agelaia-MPII], for which, in the assay with RBL-2H3 cells (pH 7.4), it took 34.7 ± 9.03 µM to reach a half-maximal effect (EC50).

Consider INWKKIFQKVKNLV-NH2 [PDD-A], for which it took 65.8 ± 19.5 µM to reach a half-maximal effect with RBL-2H3 cells (pH 7.4) (EC50).

For “INWLKLGKKVSAAL-NH2 [Protopolybia-MP III-14]”, in the assay on RBL-2H3 cells, the EC50 was over 325 µM; the “EC50 (μg/mL), Protopolybia-MPIII and mutations” value is over 500 µg/mL; the “degranulation activity of mutant compared with Protopolybia-MPIII, in words” value was “almost lost”.

LNFKALAALAKKIL-NH2 [Pm-R2] returned an EC50 in the assay with RBL-2H3 cells (pH 7.4) of 94.8 ± 73.5 µM.

In the case of IDWLKLRVISVIDL-NH2 [Polybia-MPIV], the “Degranulation at 80 μg/mL, RBL-2H3” value in the assay with RBL-2H3 cells is reported as 6%. Also, in the assay with RBL-2H3 cells (pH 7.4), the EC50 is over 200 µM and the “EC50 (μg/mL), RBL-2H3” value was over 300 µg/mL. For the same compound, the “Degranulation at 80 μg/mL, P815” value in the assay on P815 cells was under 20%.

Turning to LKLMGIVKKVLGAL-NH2 [MP-EM1], in the assay on RBL-2H3 cells (pH 7.4), a half-maximal response (EC50) required 197 ± 164 µM.

As to LNLKGIFKKVASLLT-OH [Eumenitin], in the assay with RBL-2H3 cells, the “degranulation of RBL-2H3 / mast cells, in words” value was “hardly induced mast cell degranulation” and the “Degranulation at 80 μg/mL, RBL-2H3” value was 8%. Further, the “EC50 (μg/mL), RBL-2H3” value in the assay with RBL-2H3 cells (pH 7.4) is over 300 µg/mL. In addition, the “Degranulation at 80 μg/mL, P815” value in the assay on P815 cells is recorded as under 20%.

Consider INWHDIAIKNIDAL-NH2 [Polybia-MPV], for which the “Degranulation at 80 μg/mL, RBL-2H3” value in the assay on RBL-2H3 cells came to 1%. For the same compound, in the assay with RBL-2H3 cells (pH 7.4), the EC50 was over 200 µM and the “EC50 (μg/mL), RBL-2H3” value is over 300 µg/mL. The “Degranulation at 80 μg/mL, P815” value with P815 cells is under 20%.

In the assay with RBL-2H3 cells (pH 7.4), FDLLGLVKSVVSAL-NH2 [EpVP2b] displayed an EC50 of 25.9 ± 2.88 µM.

For the compound LNLKGLIKKVASLLN-OH [Eumenitin-R], in the assay with RBL-2H3 cells, the “degranulation of RBL-2H3 / mast cells, in words” value is listed as “hardly induced mast cell degranulation” and the “Degranulation at 80 μg/mL, RBL-2H3” value came out at 14%. Besides, the “EC50 (μg/mL), RBL-2H3” value in the assay with RBL-2H3 cells (pH 7.4) is over 300 µg/mL. In addition, in the assay with P815 cells, the “Degranulation at 80 μg/mL, P815” value was under 20%.

Consider `CC[C@H](C)[C@H](N)C(=O)N[C@@H](CC(N)=O)C(=O)N[C@@H](CC(C)C)C(=O)N[C@@H](CCCCN)C(=O)N[C@@H](C)C(=O)N[C@@H](CC(C)C)C(=O)N[C@@H](C)C(=O)N[C@@H](C)C(=O)N[C@@H](CC(C)C)C(=O)N[C@@H](C)C(=O)N[C@@H](CCCCN)C(=O)N[C@@H](CCCCN)C(=O)N[C@H](C(=O)N[C@@H](CC(C)C)C(N)=O)[C@@H](C)CC` [Mastoparan(-L), reference compound], for which, in the assay on RBL-2H3 cells (pH 7.4), a half-maximal effect (EC50) was put at 52.1 ± 3.21 µM.

Compound INWKALLDAAKKVL-NH2 [Protonectarina-MP] returned an EC50 with RBL-2H3 cells (pH 7.4) of 46.4 ± 3.1 µM.

For the compound INWKKIAEVGGKILSSL-NH2 [Dominulin A], in the assay with RBL-2H3 cells, the “Degranulation at 80 μg/mL, RBL-2H3” value stood at 11%. Also, in the assay with RBL-2H3 cells (pH 7.4), the EC50 is over 200 µM and the “EC50 (μg/mL), RBL-2H3” value was over 300 µg/mL. Also, the “Degranulation at 80 μg/mL, P815” value with P815 cells is reported as under 20%.

In the assay on RBL-2H3 cells (pH 7.4), INWLKLGKQILGAL-NH2 [Pm-R3] yielded an EC50 of 7.6 ± 0.76 µM.

“INWLKLGKAVSAAL-NH2 [Protopolybia-MP III-8]”: in the assay on RBL-2H3 cells, a half-maximal response (EC50) required 140 ± 7.06 µM.

In the case of LKLLGIVKKVLGAI-NH2 [EMP-EM2], the midpoint of the response in the assay with RBL-2H3 cells (pH 7.4), the EC50, lay at 72.8 ± 19.8 µM.

For GRILSFIKGLAEHL-NH2 [EMP-OD], the “Degranulation at 80 μg/mL, RBL-2H3” value with RBL-2H3 cells came to 4%. Further, in the assay with RBL-2H3 cells (pH 7.4), the EC50 was over 200 µM and the “EC50 (μg/mL), RBL-2H3” value is over 300 µg/mL. The “Degranulation at 80 μg/mL, P815” value with P815 cells is reported as under 20%.

Turning to “INWLKLGKKVSDAL-NH2 [Protopolybia-MP III-5]”, in the assay on RBL-2H3 cells, the EC50 is over 325 µM; the “EC50 (μg/mL), Protopolybia-MPIII and mutations” value is over 500 µg/mL; the “degranulation activity of mutant compared with Protopolybia-MPIII, in words” value is reported as “almost lost”.

IDWLKLGKMVMDVL-NH2 [Polybia-MPIII] came in with an EC50 in the assay on RBL-2H3 cells (pH 7.4) of 114 ± 59.3 µM.

In turn, “INWLKLGKKVIAAL-NH2 [Protopolybia-MP III-6]” showed an EC50 in the assay on RBL-2H3 cells of 69.1 ± 12.3 µM.

“INWLKLGKAVSDAL-NH2 [Protopolybia-MP III-2]” returned an EC50 in the assay with RBL-2H3 cells of 193 ± 28.8 µM.

The compound `CC[C@H](C)[C@H](NC(=O)[C@H](CC(=O)O)NC(=O)[C@@H](N)Cc1ccccc1)C(=O)N[C@@H](CCSC)C(=O)NCC(=O)N[C@@H](CC(C)C)C(=O)N[C@H](C(=O)N[C@@H](CCCCN)C(=O)N[C@@H](CCCCN)C(=O)N[C@H](C(=O)N[C@@H](C)C(=O)NCC(=O)N[C@@H](C)C(=O)N[C@@H](CC(C)C)C(N)=O)C(C)C)[C@@H](C)CC` [EMP-ER] gave an EC50 in the assay with RBL-2H3 cells (pH 7.4) of 76.2 ± 5.81 µM.

Take INWLKLGKKVSAIL-NH2 [Protopolybia-MPI]: the EC50 with RBL-2H3 cells (pH 7.4) was determined as 117 ± 38.3 µM.

As for INWLKLGKKILGAI-NH2 [Pm-R1], the EC50 in the assay on RBL-2H3 cells (pH 7.4) turned out to be 22.9 ± 4.77 µM.

Consider INLKAIAAFAKKLL-NH2 [Mastoparan-T], for which it took 138 ± 68.4 µM to reach a half-maximal effect with RBL-2H3 cells (pH 7.4) (EC50).

With “INWLKLGKAVIAIL-NH2 [Protopolybia-MP III-10]”, a half-maximal effect in the assay with RBL-2H3 cells (EC50) was put at 8.39 ± 0.93 µM.

INWKGIAAMAKKLL-NH2 [Mastoparan-X(V)] gave an EC50 with RBL-2H3 cells (pH 7.4) of 78.8 ± 15 µM.

Turning to INLFGFAALVKKFL-NH2 [Mastoparan-T4], the EC50 in the assay with RBL-2H3 cells (pH 7.4) turned out to be 18.2 ± 3.52 µM.

For INWLKLGKAVIDAL-NH2 [Protopolybia-MPIII], the values for the EC50 in the assay on RBL-2H3 cells and with RBL-2H3 cells (pH 7.4) were 21.7 ± 3.44 µM and 22.5 ± 2.96 µM, respectively.

In turn, IDWKKLLDAAKQIL-NH2 [Polybia-MPI] returned an EC50 in the assay on RBL-2H3 cells (pH 7.4) of 23.2 ± 2.09 µM.
